Results from patent US20050159599A1, “Cyclic compound, process for producing the same, and pest control agent” (priority 2002, published 2005).

Legend:
Format in all cases: in vivo
Plutella xylostella [1] = assay: Insecticidal effect for Plutella xylostella by immersion treatment of host crop (Test Example 1); settings: cabbage leaf dipped, second-instar larvae of Plutella xylostella, fifth day after; for rate of dead pests (%): 100 ppm; for pest or weed control at 100 ppm: foliar, 120 h, read-out: rate of dead pests (%)
Experimental: Insecticidal Effect for Plutella xylostella by Immersion Treatment of Host Crop One true leaf of 7 to 8-leave stage cabbage was cut off and dipped in a pesticidal solution for a few seconds, which was prepared by dissolving 5 mg of test compound (represented by the compound Nos. in the above Examples) in 0.5 ml of acetone containing Tween 20 (trade name) and then diluting it to the prescribed concentration (100 ppm) with Dain (trade name, sticker) water diluted 5000-fold. After drying the pesticidal solution, the leaf was put into an ice cream cup (180 ml), and ten second-instar larvae of Plutella xylostella were set free therein. The cup was left in a temperature-controlled breeding room (24° C.). On the fifth day after, the number of surviving Plutella xylostella was examined. The rate of dead pests was calculated by the following formula. rate of dead pests (%)=(number of dead pests/number of test pests)×100

Plutella xylostella [2] = assay: Pest control effect for Plutella xylostella by plant seedling foot soil surface irrigation treatment, 24th day (Test Example 6); settings: 20 mg/plant; soil surface irrigation of cabbage; larvae counted on the 24th day
Experimental: Pest Control Effect for Plutella xylostella by Plant Seedling Foot Soil Surface Irrigation Treatment With Pesticidal Solution
A pesticidal solution which was prepared by dissolving 20 mg of test compound (represented by the compound Nos. in the above Examples) in 0.2 ml of acetone containing Tween 20 (trade name) and then diluting to 3 ml with ion-exchange water, was irrigated on the plant foot soil surface of 2.5-leave stage cabbage. This cabbage plant was transplanted to 1/5000a pot, and left in a facility wherein imagoes of Plutella xylostella were set free to lay eggs successively. On the 24th day after, the number of lavae on the plant was examined. The rate of pest control was calculated by the following formula. rate of pest control (%)=(1−number of pests in treated plant/number of pests in non-treated-plant)×100

Spodoptera litura [3] = assay: Insecticidal effect for Spodoptera litura by spraying treatment to host crop (Test Example 2); settings: 100 ppm, sprayed on soybean, third-instar larvae of Spodoptera litura, fifth day after; for pest or weed control at 100 ppm: 120 h, read-out: rate of dead pests (%)
Summary of the method: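 Ten third-instar larvae held at 25° C. on two excised primary soybean leaves previously sprayed to dripping with 100 ppm test solution. Mortality (%) calculated from dead versus tested larvae on the fifth day.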

Spodoptera litura [4] = assay: Insecticidal effect for Spodoptera litura by immersion treatment of host crop root (Test Example 4); settings: 25 ppm, soybean root immersion 5 days, second-instar larvae of Spodoptera litura, fifth day after; for pest or weed control at 25 ppm: 120 h, read-out: rate of dead pests (%)
Summary of the method: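 Soil was washed from the roots of soybean plants at the primary-leaf stage, and the roots were immersed in a pesticidal solution held in a light-shielded 100 ml Erlenmeyer flask. The solution was made from acetone containing Tween 20, diluted with ion-exchange water. Five days after root immersion, two primary leaves were cut and placed in a 180 ml cup with ten second-instar Spodoptera litura larvae, then kept at 25° C. Survivors were counted five days later. The rate of dead pests (%) was calculated as dead pests divided by test pests, times 100.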

Tetranychus urticae = assay: Acaricidal effect for Tetranychus urticae (Test Example 5); settings: 100 ppm (table); spray on kidney bean with ten female imagoes; survivors counted on second and seventh day, 25° C.
Experimental: Acaricidal Effect for Tetranychus urticae
Ten female imagoes Tetranychus urticae were set free on a kidney bean wherein primary leaves had just developed. On the following day, a pesticidal solution, which was prepared by dissolving 5 mg of test compound (represented by the compound Nos. in the above Examples) in 0.5 ml of acetone containing Tween 20 ([…]) with Dain (trade name, sticker) water diluted 5000-fold, was sprayed with spray gun in the amounts wherein the pesticidal solution dripped. The kidney bean was left in a temperature-controlled breeding room (25° C.). On the second and seventh day after treatment, the number of surviving Tetranychus urticae was examined. The rate of decrease was calculated by the following formula. rate of decrease (%)=(1−(S2/(5.59×(10+(10+S1)/2+S1))))×100 In the above formula, • S1; the number of surviving imagoes on the second day after • S2; the number of surviving pests on the seventh day after […]

Plutella xylostella [5] = assay: Insecticidal effect for Plutella xylostella by immersion treatment of host crop root (Test Example 3); settings: 25 ppm, cabbage root immersed 5 days, ten second-instar larvae on stem and leaves, counted on the fifth day, 24° C.; for pest or weed control at 25 ppm: Plutella xylostella, 120 h, read-out: rate of dead pests (%)
Experimental: Insecticidal Effect for Plutella xylostella by Immersion Treatment of Host Crop Root
Roots of 4-leave stage cabbage was washed with tap water to remove soil, and then immersed in a pesticidal solution which was prepared by dissolving 5 mg of test compound (represented by the compound Nos. in the above Examples) in 0.5 ml of acetone containing Tween 20 (trade name) and then diluting it to the prescribed concentration (25 ppm) with ion-exchange water, and which was filled in a light-shielded Erlenmeyer flask (100 ml). On the fifth day after immersion of root, the root was cut off, and the stem and leaves were put into an ice cream cup (180 ml). Ten second-instar larvae of Plutella xylostella were set free therein, and the cup was left in a temperature-controlled breeding room (24° C.). On the fifth day after, the number of surviving Plutella xylostella was examined. The rate of dead pests was calculated by the following formula. rate of dead pests (%)=(number of dead pests/number of test pests)×100

O=C(c1c(F)cccc1F)N1COCN(c2ccc(SC(F)(F)F)cc2)C1=O [I-25]
rate of dead pests (%) (Plutella xylostella [1]): 100% | rate of pest control (%) (Plutella xylostella [2]): 88%

O=C(c1c(F)cccc1F)N1CSCN(c2cc(Cl)c(F)c(Cl)c2F)C1=O [II-10]
rate of dead pests (%) (Plutella xylostella [1]): 100% | rate of pest control (%) (Plutella xylostella [2]): 88% | rate of dead pests (%) (Spodoptera litura [3]): 100% | rate of dead pests (%) (Spodoptera litura [4]): 100%

CN1CN(C(=O)c2c(F)cccc2F)C(=O)N(c2ccc(Oc3ccc(C(F)(F)F)cc3Cl)cc2F)C1 [III-21]
rate of dead pests (%) (Spodoptera litura [3]): 100% | rate of decrease (%) (Tetranychus urticae): 99%

C=CCN1CN(C(=O)c2c(F)cccc2F)C(=O)N(c2ccc(Oc3ccc(C(F)(F)F)cc3Cl)cc2F)C1 [III-24]
rate of dead pests (%) (Plutella xylostella [1]): 100% | rate of dead pests (%) (Spodoptera litura [3]): 100% | rate of decrease (%) (Tetranychus urticae): 95%

CC(C)N1CN(C(=O)c2c(F)cccc2F)C(=O)N(c2ccc(Oc3ccc(C(F)(F)F)cc3Cl)cc2F)C1 [III-25]
rate of dead pests (%) (Plutella xylostella [1]): 100% | rate of dead pests (%) (Spodoptera litura [3]): 100% | rate of decrease (%) (Tetranychus urticae): 97%

O=C(c1c(F)cccc1F)N1CNCN(c2ccc(Oc3ccc(C(F)(F)F)cc3Cl)cc2F)C1=O [III-27, 1-[4-(2-chloro-4-trifluoromethylphenoxy)-2-fluorophenyl]-3-(2,6-difluorobenzoyl)tetrahydro-1,3,5-triazin-2(1H)-one]
pest or weed control at 100 ppm (Plutella xylostella [1]): 100% | pest or weed control at 100 ppm (Spodoptera litura [3]): 100% | rate of decrease (%) (Tetranychus urticae): 96%

COC(=O)SN1CN(C(=O)c2c(F)cccc2F)C(=O)N(c2ccc(Oc3ccc(C(F)(F)F)cc3Cl)cc2F)C1 [III-31]
rate of dead pests (%) (Plutella xylostella [1]): 100% | rate of dead pests (%) (Spodoptera litura [3]): 100% | rate of decrease (%) (Tetranychus urticae): 99%

O=C(c1c(F)cccc1F)N1CN(S(=O)(=O)C(F)(F)F)CN(c2ccc(Oc3ccc(C(F)(F)F)cc3Cl)cc2F)C1=O [III-35]
rate of dead pests (%) (Spodoptera litura [3]): 100% | rate of decrease (%) (Tetranychus urticae): 97%

COC(=O)C(=O)N1CN(C(=O)c2c(F)cccc2F)C(=O)N(c2ccc(Oc3ccc(C(F)(F)F)cc3Cl)cc2F)C1 [III-37, Methyl 2-[3-[4-(2-chloro-4-trifluoromethylphenoxy)-2-fluorophenyl]-5-(2,6-difluorobenzoyl)hexahydro-4-oxo-1,3,5-triazin-1-yl]-2-oxoacetate]
pest or weed control at 100 ppm (Spodoptera litura [3]): 100% | rate of decrease (%) (Tetranychus urticae): 97% | pest or weed control at 25 ppm (Spodoptera litura [4]): 95%

O=C(O)C(=O)N1CN(C(=O)c2c(F)cccc2F)C(=O)N(c2ccc(Oc3ccc(C(F)(F)F)cc3Cl)cc2F)C1 [III-38, 2-[3-[4-(2-chloro-4-trifluoromethylphenoxy)-2-fluorophenyl]-5-(2,6-difluorobenzoyl)hexahydro-4-oxo-1,3,5-triazin-1-yl]-2-oxoacetic Acid]
pest or weed control at 25 ppm (Plutella xylostella [5]): 90% | pest or weed control at 100 ppm (Spodoptera litura [3]): 100% | rate of decrease (%) (Tetranychus urticae): 98% | pest or weed control at 25 ppm (Spodoptera litura [4]): 100%

O=C(OCc1ccccc1)C(=O)N1CN(C(=O)c2c(F)cccc2F)C(=O)N(c2ccc(Oc3ccc(C(F)(F)F)cc3Cl)cc2F)C1 [III-39, Benzyl 2-[3-[4-(2-chloro-4-trifluoromethylphenoxy)-2-fluorophenyl]-5-(2,6-difluorobenzoyl)hexahydro-4-oxo-1,3,5-triazin-1-yl]-2-oxoacetate]
pest or weed control at 100 ppm (Plutella xylostella [1]): 100% | pest or weed control at 100 ppm (Spodoptera litura [3]): 100% | rate of decrease (%) (Tetranychus urticae): 97%

NC(=O)C(=O)N1CN(C(=O)c2c(F)cccc2F)C(=O)N(c2ccc(Oc3ccc(C(F)(F)F)cc3Cl)cc2F)C1 [III-41]
rate of dead pests (%) (Plutella xylostella [1]): 100% | rate of dead pests (%) (Spodoptera litura [3]): 100% | rate of decrease (%) (Tetranychus urticae): 97%

CNC(=O)C(=O)N1CN(C(=O)c2c(F)cccc2F)C(=O)N(c2ccc(Oc3ccc(C(F)(F)F)cc3Cl)cc2F)C1 [III-42]
rate of dead pests (%) (Spodoptera litura [3]): 100% | rate of decrease (%) (Tetranychus urticae): 98%

O=C(CBr)N1CN(C(=O)c2c(F)cccc2F)C(=O)N(c2ccc(Oc3ccc(C(F)(F)F)cc3Cl)cc2F)C1 [III-44]
rate of dead pests (%) (Plutella xylostella [1]): 100% | rate of dead pests (%) (Spodoptera litura [3]): 100% | rate of decrease (%) (Tetranychus urticae): 96%

CSCC(=O)N1CN(C(=O)c2c(F)cccc2F)C(=O)N(c2ccc(Oc3ccc(C(F)(F)F)cc3Cl)cc2F)C1 [III-45]
rate of dead pests (%) (Plutella xylostella [1]): 100% | rate of dead pests (%) (Spodoptera litura [3]): 100% | rate of decrease (%) (Tetranychus urticae): 100%

C[S+]([O-])CC(=O)N1CN(C(=O)c2c(F)cccc2F)C(=O)N(c2ccc(Oc3ccc(C(F)(F)F)cc3Cl)cc2F)C1 (centres unmarked) [III-46]
rate of decrease (%) (Tetranychus urticae): 97%

CON(C)C(=O)C(=O)N1CN(C(=O)c2c(F)cccc2F)C(=O)N(c2ccc(Oc3ccc(C(F)(F)F)cc3Cl)cc2F)C1 [III-48]
rate of dead pests (%) (Plutella xylostella [1]): 100% | rate of decrease (%) (Tetranychus urticae): 95%

CONC(=O)C(=O)N1CN(C(=O)c2c(F)cccc2F)C(=O)N(c2ccc(Oc3ccc(C(F)(F)F)cc3Cl)cc2F)C1 [III-49]
rate of dead pests (%) (Spodoptera litura [3]): 100% | rate of decrease (%) (Tetranychus urticae): 96% | rate of dead pests (%) (Spodoptera litura [4]): 95%

O=C(c1c(F)cccc1F)N1CNCN(c2ccc(SC(F)(F)C(F)Cl)cc2F)C1=O (centres unmarked) [III-78]
rate of dead pests (%) (Plutella xylostella [1]): 100% | rate of pest control (%) (Plutella xylostella [2]): 83% | rate of dead pests (%) (Spodoptera litura [3]): 100%

CN1CN(C(=O)c2c(F)cccc2F)C(=O)N(c2ccc([S+]([O-])C(F)(F)C(F)Cl)cc2F)C1 (centres unmarked) [III-84]
rate of dead pests (%) (Plutella xylostella [1]): 100% | rate of pest control (%) (Plutella xylostella [2]): 100% | rate of dead pests (%) (Spodoptera litura [3]): 100%

CN1CN(C(=O)c2c(F)cccc2F)C(=O)N(c2ccc(SC(F)F)cc2F)C1 [III-148, 1-(2,6-difluorobenzoyl)-3-[4-(difluoromethylthio)-2-fluorophenyl]-5-methyltetrahydro-1,3,5-triazin-2(1H)-one]
pest or weed control at 100 ppm (Plutella xylostella [1]): 100% | pest or weed control at 25 ppm (Plutella xylostella [5]): 100% | pest or weed control at 100 ppm (Spodoptera litura [3]): 100% | pest or weed control at 25 ppm (Spodoptera litura [4]): 100%

CC(=O)N1CN(C(=O)c2c(F)cccc2F)C(=O)N(c2ccc(SC(F)F)cc2F)C1 [III-149]
rate of dead pests (%) (Plutella xylostella [1]): 100% | rate of dead pests (%) (Plutella xylostella [5]): 95% | rate of dead pests (%) (Spodoptera litura [3]): 100% | rate of dead pests (%) (Spodoptera litura [4]): 100%

CN1CN(C(=O)c2c(F)cccc2F)C(=O)N(c2ccc([S+]([O-])C(F)F)cc2F)C1 (centres unmarked) [III-152, 1-(2,6-difluorobenzoyl)-3-[4-(difluoromethylsulfinyl)-2-fluorophenyl]-5-methyltetrahydro-1,3,5-triazin-2(1H)-one]
pest or weed control at 100 ppm (Plutella xylostella [1]): 100% | pest or weed control at 25 ppm (Plutella xylostella [5]): 100% | pest or weed control at 100 ppm (Spodoptera litura [3]): 100% | pest or weed control at 25 ppm (Spodoptera litura [4]): 100%

CC(=O)N1CN(C(=O)c2c(F)cccc2F)C(=O)N(c2ccc([S+]([O-])C(F)F)cc2F)C1 (centres unmarked) [III-153]
rate of dead pests (%) (Plutella xylostella [1]): 100% | rate of dead pests (%) (Plutella xylostella [5]): 100% | rate of dead pests (%) (Spodoptera litura [3]): 100% | rate of dead pests (%) (Spodoptera litura [4]): 100%
